Assay results reported in BindingDB's records for doi:10.3109/14756366.2011.591290 (Agri Ibrahim Cecen University, 2012).

How the values were obtained:
Assay in all cases: CA Activity Assay
Settings in all cases: pH 7.4; 25 °C
Carbonic anhydrase 1 = Carbonic anhydrase 1 (Homo sapiens, UniProt P00915)
Carbonic anhydrase 2 = Carbonic anhydrase 2 (Homo sapiens, UniProt P00918)
Carbonic anhydrase 6 = Carbonic anhydrase 6 (Homo sapiens, UniProt P23280)
Sequence of Carbonic anhydrase 6 (P23280 whole entry): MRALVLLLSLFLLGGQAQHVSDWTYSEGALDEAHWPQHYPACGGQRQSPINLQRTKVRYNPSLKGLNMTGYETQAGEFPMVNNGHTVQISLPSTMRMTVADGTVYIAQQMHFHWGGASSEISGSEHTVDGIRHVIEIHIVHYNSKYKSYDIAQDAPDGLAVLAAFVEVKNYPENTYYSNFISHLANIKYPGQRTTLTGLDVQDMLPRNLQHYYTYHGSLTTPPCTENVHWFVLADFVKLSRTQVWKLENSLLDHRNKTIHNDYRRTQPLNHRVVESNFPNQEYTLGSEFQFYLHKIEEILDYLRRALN

Sequence of Carbonic anhydrase 1 (P00915 whole entry): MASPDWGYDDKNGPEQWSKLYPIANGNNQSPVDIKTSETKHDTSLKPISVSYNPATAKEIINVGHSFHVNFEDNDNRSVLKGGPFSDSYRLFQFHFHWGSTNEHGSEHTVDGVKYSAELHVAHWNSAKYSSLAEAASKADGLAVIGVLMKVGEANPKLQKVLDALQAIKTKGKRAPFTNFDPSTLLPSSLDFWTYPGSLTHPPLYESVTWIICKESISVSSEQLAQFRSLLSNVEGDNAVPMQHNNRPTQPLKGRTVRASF

Row | SMILES | Ki (Carbonic anhydrase 1) | Ki (Carbonic anhydrase 2) | Ki (Carbonic anhydrase 6)
1 | NC1CCc2cc(O)c(O)cc2C1 (stereo unspecified) | 41100 nM | 440 nM | 1150 nM
2 | NC1CCc2c(ccc(O)c2O)C1 (stereo unspecified) [6-Amino-5,6,7,8-tetrahydro-naphthalene-1,2-diol] | 45100 nM | 380 nM | 970 nM
3 | NC1Cc2cc(Br)c(Br)cc2C1 [CA inhibitor, 5] | – | 470000 nM | 780 nM
4 | NC1Cc2ccc(Br)cc2C1 (stereo unspecified) [CA inhibitor, 6] | 161000 nM | 143000 nM | 580 nM
